Test results: the supplement of paper PMC10307832

How the values were obtained:
Assay in all cases: relative viability (nuclei count vs DMSO), 5 days (fraction); higher = more cells survive
A549 = tested on: A549
Outline: (§1)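 Dosing by pin tool came one day after lung cancer cell lines were seeded in 1536-well plates, using either one drug or a fixed anchor-drug dose plus five library-drug doses (not always all listed) in √10 steps. After 5 days, nuclei were counted on 4× images. Relative viability is treated-well nuclei count divided by vehicle-well nuclei count, and values are medians of duplicate plates.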

COR-L 105 = tested on: COR-L 105
Outline: as §1

LCLC-103H = tested on: LCLC-103H
Outline: as §1

LK-2 = tested on: LK-2
Outline: as §1

NCI-H1355 = tested on: NCI-H1355
Outline: as §1

NCI-H1648 = tested on: NCI-H1648
Outline: as §1

NCI-H1666 = tested on: NCI-H1666
Outline: as §1

NCI-H520 = tested on: NCI-H520
Outline: as §1

NCI-H522 = tested on: NCI-H522
Outline: as §1

Molecule `Nc1ccn([C@@H]2O[C@H](CO)[C@@H](O)[C@@H]2O)c(=O)n1` [Cytarabine] + Nc1ncn([C@H]2C[C@H](O)[C@@H](CO)O2)c(=O)n1 [Decitabine] (partner 2 µM) has a relative viability (A549; first compound 0.005 µM) of 0.215, a relative viability (A549; first compound 0.01581 µM) of 0.115 and a relative viability (A549; first compound 0.05 µM) of 0.161. The relative viability (A549; first compound 0.1581 µM) was 0.0447, the relative viability (A549; first compound 0.5 µM) was 0.0287 and the relative viability (COR-L 105; first compound 0.005 µM) was 0.623. It also gave a relative viability (COR-L 105; first compound 0.01581 µM) of 0.642, a relative viability (COR-L 105; first compound 0.05 µM) of 0.426 and a relative viability (COR-L 105; first compound 0.1581 µM) of 0.398. It also gave a relative viability (COR-L 105; first compound 0.5 µM) of 0.303, a relative viability (LCLC-103H; first compound 0.005 µM) of 0.71 and a relative viability (LCLC-103H; first compound 0.01581 µM) of 0.734. It also gave a relative viability (LCLC-103H; first compound 0.05 µM) of 0.73, a relative viability (LCLC-103H; first compound 0.1581 µM) of 0.751 and a relative viability (LCLC-103H; first compound 0.5 µM) of 0.724. For the same molecule, the relative viability (LK-2; first compound 0.005 µM) was 0.234, the relative viability (LK-2; first compound 0.01581 µM) was 0.249 and the relative viability (LK-2; first compound 0.05 µM) was 0.15. For the same molecule, the relative viability (LK-2; first compound 0.1581 µM) was 0.0989, the relative viability (LK-2; first compound 0.5 µM) was 0.132 and the relative viability (NCI-H1355; first compound 0.005 µM) was 0.349. It also gave a relative viability (NCI-H1355; first compound 0.01581 µM) of 0.332, a relative viability (NCI-H1355; first compound 0.05 µM) of 0.337 and a relative viability (NCI-H1355; first compound 0.1581 µM) of 0.242. The relative viability (NCI-H1355; first compound 0.5 µM) was 0.255, the relative viability (NCI-H1648; first compound 0.005 µM) was 0.479 and the relative viability (NCI-H1648; first compound 0.01581 µM) was 0.526. The relative viability (NCI-H1648; first compound 0.05 µM) was 0.502, the relative viability (NCI-H1648; first compound 0.1581 µM) was 0.35 and the relative viability (NCI-H1648; first compound 0.5 µM) was 0.362. It also gave a relative viability (NCI-H1666; first compound 0.005 µM) of 0.73, a relative viability (NCI-H1666; first compound 0.01581 µM) of 0.633 and a relative viability (NCI-H1666; first compound 0.05 µM) of 0.543. It also gave a relative viability (NCI-H1666; first compound 0.1581 µM) of 0.523, a relative viability (NCI-H1666; first compound 0.5 µM) of 0.455 and a relative viability (NCI-H520; first compound 0.005 µM) of 0.48. The relative viability (NCI-H520; first compound 0.01581 µM) was 0.564, the relative viability (NCI-H520; first compound 0.05 µM) was 0.53 and the relative viability (NCI-H520; first compound 0.1581 µM) was 0.343. It also gave a relative viability (NCI-H520; first compound 0.5 µM) of 0.349, a relative viability (NCI-H522; first compound 0.005 µM) of 0.653 and a relative viability (NCI-H522; first compound 0.01581 µM) of 0.608. For the same molecule, the relative viability (NCI-H522; first compound 0.05 µM) was 0.628, the relative viability (NCI-H522; first compound 0.1581 µM) was 0.484 and the relative viability (NCI-H522; first compound 0.5 µM) was 0.335.
In the case of `Nc1ccn([C@@H]2O[C@H](CO)[C@@H](O)[C@@H]2O)c(=O)n1` [Cytarabine] + Nc1nc2[nH]cc(CCc3ccc(C(=O)N[C@@H](CCC(=O)O)C(=O)O)cc3)c2c(=O)[nH]1 [Pemetrexed] (partner 0.2 µM), the relative viability (COR-L 105; first compound 0.005 µM) is reported as 0.961, the relative viability (COR-L 105; first compound 0.01581 µM) is reported as 1.19 and the relative viability (COR-L 105; first compound 0.05 µM) is reported as 0.678. The relative viability (COR-L 105; first compound 0.1581 µM) was 0.579, the relative viability (COR-L 105; first compound 0.5 µM) was 0.383 and the relative viability (LCLC-103H; first compound 0.005 µM) was 0.458. The relative viability (LCLC-103H; first compound 0.01581 µM) was 0.467, the relative viability (LCLC-103H; first compound 0.05 µM) was 0.497 and the relative viability (LCLC-103H; first compound 0.1581 µM) was 0.422. The relative viability (LCLC-103H; first compound 0.5 µM) was 0.456, the relative viability (LK-2; first compound 0.005 µM) was 0.34 and the relative viability (LK-2; first compound 0.01581 µM) was 0.233. For the same molecule, the relative viability (LK-2; first compound 0.05 µM) was 0.11, the relative viability (LK-2; first compound 0.1581 µM) was 0.091 and the relative viability (LK-2; first compound 0.5 µM) was 0.0936. It also gave a relative viability (NCI-H1355; first compound 0.005 µM) of 0.883, a relative viability (NCI-H1355; first compound 0.01581 µM) of 0.988 and a relative viability (NCI-H1355; first compound 0.05 µM) of 0.821. For the same molecule, the relative viability (NCI-H1355; first compound 0.1581 µM) was 0.553, the relative viability (NCI-H1355; first compound 0.5 µM) was 0.324 and the relative viability (NCI-H1648; first compound 0.005 µM) was 0.563. The relative viability (NCI-H1648; first compound 0.01581 µM) was 0.733, the relative viability (NCI-H1648; first compound 0.05 µM) was 0.838 and the relative viability (NCI-H1648; first compound 0.1581 µM) was 0.653. The relative viability (NCI-H1648; first compound 0.5 µM) was 0.515, the relative viability (NCI-H1666; first compound 0.005 µM) was 0.761 and the relative viability (NCI-H1666; first compound 0.01581 µM) was 0.718. It also gave a relative viability (NCI-H1666; first compound 0.05 µM) of 0.754, a relative viability (NCI-H1666; first compound 0.1581 µM) of 0.655 and a relative viability (NCI-H1666; first compound 0.5 µM) of 0.616. The relative viability (NCI-H520; first compound 0.005 µM) was 0.605, the relative viability (NCI-H520; first compound 0.01581 µM) was 0.65 and the relative viability (NCI-H520; first compound 0.05 µM) was 0.639. It also gave a relative viability (NCI-H520; first compound 0.1581 µM) of 0.528, a relative viability (NCI-H520; first compound 0.5 µM) of 0.398 and a relative viability (NCI-H522; first compound 0.005 µM) of 0.942. The relative viability (NCI-H522; first compound 0.01581 µM) was 0.846, the relative viability (NCI-H522; first compound 0.05 µM) was 0.631 and the relative viability (NCI-H522; first compound 0.1581 µM) was 0.578. It also gave a relative viability (NCI-H522; first compound 0.5 µM) of 0.455.
For `COc1cc2nccc(Oc3ccc(NC(=O)Nc4cc(C)on4)c(Cl)c3)c2cc1OC` [Tivozanib] + Nc1nc2[nH]cc(CCc3ccc(C(=O)N[C@@H](CCC(=O)O)C(=O)O)cc3)c2c(=O)[nH]1 [Pemetrexed] (partner 0.2 µM), the relative viability (COR-L 105; first compound 0.005 µM) was 0.919, the relative viability (COR-L 105; first compound 0.01581 µM) was 1.08 and the relative viability (COR-L 105; first compound 0.05 µM) was 1.34. It also gave a relative viability (COR-L 105; first compound 0.1581 µM) of 1.13, a relative viability (COR-L 105; first compound 0.5 µM) of 1.27 and a relative viability (LCLC-103H; first compound 0.005 µM) of 0.453. For the same molecule, the relative viability (LCLC-103H; first compound 0.01581 µM) was 0.508, the relative viability (LCLC-103H; first compound 0.05 µM) was 0.49 and the relative viability (LCLC-103H; first compound 0.1581 µM) was 0.459. For the same molecule, the relative viability (LCLC-103H; first compound 0.5 µM) was 0.46, the relative viability (LK-2; first compound 0.005 µM) was 0.254 and the relative viability (LK-2; first compound 0.01581 µM) was 0.258. For the same molecule, the relative viability (LK-2; first compound 0.05 µM) was 0.289, the relative viability (LK-2; first compound 0.1581 µM) was 0.203 and the relative viability (LK-2; first compound 0.5 µM) was 0.197. It also gave a relative viability (NCI-H1355; first compound 0.005 µM) of 1.03, a relative viability (NCI-H1355; first compound 0.01581 µM) of 1.01 and a relative viability (NCI-H1355; first compound 0.05 µM) of 1.04. The relative viability (NCI-H1355; first compound 0.1581 µM) was 0.763, the relative viability (NCI-H1355; first compound 0.5 µM) was 1.07 and the relative viability (NCI-H1648; first compound 0.005 µM) was 0.723. The relative viability (NCI-H1648; first compound 0.01581 µM) was 0.704, the relative viability (NCI-H1648; first compound 0.05 µM) was 0.778 and the relative viability (NCI-H1648; first compound 0.1581 µM) was 0.652. For the same molecule, the relative viability (NCI-H1648; first compound 0.5 µM) was 0.546, the relative viability (NCI-H1666; first compound 0.005 µM) was 0.829 and the relative viability (NCI-H1666; first compound 0.01581 µM) was 0.877. For the same molecule, the relative viability (NCI-H1666; first compound 0.05 µM) was 0.932, the relative viability (NCI-H1666; first compound 0.1581 µM) was 0.797 and the relative viability (NCI-H1666; first compound 0.5 µM) was 0.75. The relative viability (NCI-H520; first compound 0.005 µM) was 0.525, the relative viability (NCI-H520; first compound 0.01581 µM) was 0.572 and the relative viability (NCI-H520; first compound 0.05 µM) was 0.552. It also gave a relative viability (NCI-H520; first compound 0.1581 µM) of 0.579, a relative viability (NCI-H520; first compound 0.5 µM) of 0.61 and a relative viability (NCI-H522; first compound 0.005 µM) of 1.03. It also gave a relative viability (NCI-H522; first compound 0.01581 µM) of 1.1, a relative viability (NCI-H522; first compound 0.05 µM) of 1.04 and a relative viability (NCI-H522; first compound 0.1581 µM) of 0.824. The relative viability (NCI-H522; first compound 0.5 µM) was 1.15.
